For assay [1], the system named is SARS-CoV-2 virus.
The test system of assay [2] is dengue virus. The settings on record: for IC50: dengue virus incubated with peptide 37°C 1 hour, Vero cells, 2 days, triplicate.
Protocol: The inoculated cells were cultured overnight.
The SP-049 peptide was prepared such that the maximum concentration was 125 nM and the minimum concentration was 0.98 nM (concentrations: 125 nM; 62.5 nM; 31.25 nM; 15.62 nM; 7.81 nM; 3.91 nM; 1.95 nM; and 0.98 nM).
The present inventors calculated the inhibition rate (% inhibition) of each well based on the formula of the standard curve by converting the average Ct value of wells infected with dengue virus without peptide treatment in the same plate into an infection rate of 100%, and using this to create a standard curve. Each value was obtained through three repeated experiments (in triplicate), and IC50 values were derived using GraphPad Prism 5 software.
For assay [3], the system named is HCV. To be noted: Table 1 in Cheng, Guofeng, et al.; cited from earlier work.

Like-named read-outs stand apart in the source and are kept apart here. No end group written: not given here.

In general, IC50 refers to the concentration that inhibits the measured activity by half. A high value points to a need for much substance. As a reminder, the % Inhibition is the relative decrease from the control value, in per cent. Consider “DFWSKLVYFFAEIIRFLS [SP-143, DFWSKLVYFFAEIIRFLS]”, for which the IC50 in assay [1] turned out to be 19.5 µM; in assay [2], 0.0161 µM. The “% Inhibition” value is on record as 59.95% in assay [2] (Conc. 0.98 nM); -28.80% in assay [2] (Conc. 1.95 nM); 42.98% in assay [2] (Conc. 3.91 nM); 49.26% in assay [2] (Conc. 7.81 nM); 53.07% in assay [2] (Conc. 15.63 nM); 79.28% in assay [2] (Conc. 31.25 nM). The “% Inhibition” value in assay [2] (Conc. 62.50 nM) is recorded as 94.07%; in assay [2] (Conc. 125.00 nM), 99.42%.
“FTFWTWLEAILDLIKKHI [SP-116, FTFWTWLEAILDLIKKHI]” yielded an IC50 in assay [1] of 4.1 µM.
With “ESLKNFWESLWKFFTHFF [SP-001, ESLKNFWESLWKFFTHFF]”, the “% Inhibition” value in assay [2] (Conc. 7.81 nM) is -0.47%; in assay [2] (Conc. 15.63 nM), 45.60%; in assay [2] (Conc. 31.25 nM), 57.96%; in assay [2] (Conc. 62.50 nM) it was 78.78%; in assay [2] (Conc. 125.00 nM), 82.51%; in assay [2] (Conc. 250.00 nM) it was 100.00%. Moreover, the “% Inhibition” value in assay [2] (Conc. 500.00 nM) and in assay [2] (Conc. 1000.00 nM) was 100.00% each time. The sequence also came in with an IC50 in assay [2] of 0.0226 µM.
For the sequence “YNLFDLLIYIWNKIFDDY [SP-049, YNLFDLLIYIWNKIFDDY]”, the IC50 in assay [1] stood at 1.8 µM; in assay [2], 0.00385 µM. Further, the “% Inhibition” value was 24.20% in assay [2] (Conc. 0.49 nM); 20.16% in assay [2] (Conc. 0.98 nM); 39.14% in assay [2] (Conc. 1.95 nM); 45.30% in assay [2] (Conc. 3.91 nM); 93.03% in assay [2] (Conc. 7.81 nM); 100.00% in assay [2] (Conc. 15.63 nM). The “% Inhibition” value in assay [2] (Conc. 31.25 nM) and in assay [2] (Conc. 62.50 nM) was 100.00% throughout.
As to “QSFLDIVWSIIDIFKEFC [SP-004, QSFLDIVWSIIDIFKEFC]”, the IC50 in assay [1] turned out to be 8.9 µM; in assay [2] it was 0.207 µM. Further, the “% Inhibition” value in assay [2] (Conc. 7.81 nM) is reported as -1.96%; in assay [2] (Conc. 15.63 nM), 6.56%; in assay [2] (Conc. 31.25 nM), 9.23%; in assay [2] (Conc. 62.50 nM) it was 22.45%; in assay [2] (Conc. 125.00 nM), 34.78%; in assay [2] (Conc. 250.00 nM), 61.21%. The figures for the “% Inhibition” value in assay [2] (Conc. 500.00 nM) and in assay [2] (Conc. 1000.00 nM) were 99.95% and 100.00%, respectively.
With “FTNFHRQLFCWIDKWIDL [SP-191, FTNFHRQLFCWIDKWIDL]”, the “% Inhibition” value is reported as -20.14% in assay [2] (Conc. 39.06 nM); -14.44% in assay [2] (Conc. 78.13 nM); 5.32% in assay [2] (Conc. 156.25 nM); 46.78% in assay [2] (Conc. 312.50 nM); 29.53% in assay [2] (Conc. 625.00 nM); 64.10% in assay [2] (Conc. 1250.00 nM). Further, the “% Inhibition” value was 98.50% in assay [2] (Conc. 2500.00 nM) and 99.99% in assay [2] (Conc. 5000.00 nM). This sequence returned an IC50 in assay [2] of 0.776 µM.
With “WSEILREFLNLISLIWSR [SP-110, WSEILREFLNLISLIWSR]”, the midpoint of inhibition in assay [1], the IC50, lay at 19.5 µM.
DWLRIIWDWVCSVVSDFK [SEQ ID NO: 301]: the “antiviral activity compared among C5A analogs derived from HCV 1a, 1b, 2a, 3a, 4a, 5a and 6a” value in assay [3] is recorded as “higher antiviral activity”.
In the case of “WDCVQDIWEYIFRTAMKI [SP-185, WDCVQDIWEYIFRTAMKI]”, the “% Inhibition” value in assay [2] (Conc. 39.06 nM) is -7.43%; in assay [2] (Conc. 78.13 nM), 11.76%; in assay [2] (Conc. 156.25 nM), 36.60%; in assay [2] (Conc. 312.50 nM), 33.04%; in assay [2] (Conc. 625.00 nM) it was 51.77%; in assay [2] (Conc. 1250.00 nM), 89.53%. Moreover, the “% Inhibition” value in assay [2] (Conc. 2500.00 nM) and in assay [2] (Conc. 5000.00 nM) was 100.00% throughout. The same sequence returned an IC50 in assay [2] of 0.519 µM.
With “FSFWVWLDNIIDLVKKYI [SP-114, FSFWVWLDNIIDLVKKYI]”, 19.5 µM corresponded to half-maximal inhibition in assay [1] (IC50). This counts as double-digit micromolar.
With “SFLDIVWSIIDIFKEFCK [SP-003, SFLDIVWSIIDIFKEFCK]”, the IC50 in assay [1] worked out at 10.3 µM; in assay [2] it was 0.022 µM. In addition, the “% Inhibition” value is given as -6.03% in assay [2] (Conc. 7.81 nM); 38.56% in assay [2] (Conc. 15.63 nM); 71.23% in assay [2] (Conc. 31.25 nM); 63.98% in assay [2] (Conc. 62.50 nM); 99.91% in assay [2] (Conc. 125.00 nM); 100.00% in assay [2] (Conc. 250.00 nM). Further, the “% Inhibition” value in assay [2] (Conc. 500.00 nM) and in assay [2] (Conc. 1000.00 nM) was 100.00% in each case.
With “ILDFFVGFIDWLVRYLNK [SP-046, ILDFFVGFIDWLVRYLNK]”, the IC50 in assay [1] turned out to be 7.9 µM; in assay [2], 0.0177 µM. In addition, the “% Inhibition” value is on record as 3.30% in assay [2] (Conc. 0.98 nM); 3.30% in assay [2] (Conc. 1.95 nM); 5.60% in assay [2] (Conc. 3.91 nM); 15.33% in assay [2] (Conc. 7.81 nM); 36.10% in assay [2] (Conc. 15.62 nM); 100.00% in assay [2] (Conc. 31.25 nM). Besides, the “% Inhibition” value in assay [2] (Conc. 62.50 nM) and in assay [2] (Conc. 125.00 nM) was 100.00% in each case.
Take “SWKEIVNLLYELLASLIR [SP-101, SWKEIVNLLYELLASLIR]”: the IC50 in assay [1] came to 11.6 µM; in assay [2], 0.1 µM. Further, the “% Inhibition” value in assay [2] (Conc. 7.81 nM) is -14.11%; in assay [2] (Conc. 15.63 nM), 20.94%; in assay [2] (Conc. 31.25 nM), 0.96%; in assay [2] (Conc. 62.50 nM) it was 23.20%; in assay [2] (Conc. 125.00 nM), 65.09%; in assay [2] (Conc. 250.00 nM) it was 97.07%. Moreover, the “% Inhibition” value in assay [2] (Conc. 500.00 nM) and in assay [2] (Conc. 1000.00 nM) was 100.00% each time.
Take “DKIVLFILSILEKIYNLL [SP-171, DKIVLFILSILEKIYNLL]”: in assay [1], the IC50 was 18.7 µM.
Still for that read-out and setting: for “DVTRLLELILDVLAYIIS [SP-151, DVTRLLELILDVLAYIIS]” the value was 5 µM.
Same read-out and setting: with “ILVRWLSHFFEYLDRFYT [SP-221, ILVRWLSHFFEYLDRFYT]” the figure was 19.5 µM.
